Source: patent US20070238749A1, “Alpha2delta ligands for the treatment of fibromyalgia and other disorders” (priority 2002, published 2007)
“Also recorded” adds a separate entry of the source. Marks after values point to notes of the source that are not given here.

Experiments:
Male Sprague-Dawley rats = test: Acidic saline-induced allodynia (static allodynia, von Frey paw withdrawal threshold); conditions: for Paw withdrawal threshold, Day 1 / Paw withdrawal threshold, Baseline / Paw withdrawal threshold, 1 hr Post Rx / Paw withdrawal threshold, 2 hr Post Rx / Paw withdrawal threshold, 3 hr Post Rx / Static allodynia (paw withdrawal threshold), Day 1 / Static allodynia (paw withdrawal threshold), Baseline / Static allodynia (paw withdrawal threshold), 1 hr Post / Static allodynia (paw withdrawal threshold), 2 hr Post Rx / Static allodynia (paw withdrawal threshold), 3 hr Post Rx: mean; for Effect on static (mechanical) allodynia: tested 2 or 3 hours after drug treatment, 2 weeks after last acid saline injection; for Effect on allodynia / PWTs: 1, 2, or 3 hours posttreatment
Method: Sprague-Dawley male rats given an intramuscular (IM) injection of 100 μL sterile pyrogen-free saline, pH 4 in the gastrocnemius muscle on Days 1 and 5, develop chronic mechanical allodynia (static allodynia) approximately 1 week after the second injection. […] Evaluations were performed blinded, with the animals and treatments randomized. […] Allodynia was sustained for 3 weeks.
Food and water were available ad libidum and animals were maintained on a 12 hr/12 hr light/dark cycle, with testing during the light phase. On test days, rats were placed in a metal chamber on an elevated metal mesh floor and allowed to acclimate for at least 20 minutes. On Day 1, a baseline von Frey filament withdrawal threshold with the right hind paw was obtained. Later on Day 1, acidic saline, pH 4 (100 μL) was injected in the right gastrocnemius muscle and a similar injection was made again in the same location on Day 5. On subsequent days, pain responses (von Frey filament withdrawal threshold, withdrawal in response to light stroking with a cotton swab, and changes in weight bearing between the 2 hind paws) were determined for both hind paws. Experimental drug treatments were evaluated for inhibitory effects on static allodynia and other pain endpoints. Rats with a paw withdrawal threshold (PWT) of 6 g or less on the day of drug testing (Days 14 to 18) were used. Rats were evaluated for PWTs at 1, 2, and 3 hours after receiving either drug or vehicle treatments.
Pressure was applied to the plantar surface of a hind paw with a single slow application for up to 6 seconds to the plantar surface beginning with the 2.0-g filament. If no withdrawal was obtained, the next higher bending force filament was applied or, in the case of a withdrawal, the next lower force filament was applied. This continued until at least 6 responses were obtained, including at least 1 withdrawal. Withdrawal threshold at each time point (for each rat) then was determined using the Dixon, ‘Up-Down’ method.
Pharmacological Evaluations of Pregabalin in the Acidic Saline Induced Allodynia Model: Rats injected with acidic saline on Days 1 and 5 were evaluated for changes in pain responses on alternate days, beginning at Day 14, following the last acidic saline injection. On a given day, only rats showing allodynia (withdrawal in, response to von Frey filaments of 6 g or less) and naïve to previous drug treatments were used to evaluate test compounds. Pregabalin or vehicle (water) was given PO, 30 minutes after baseline paw withdrawal readings. Rats were evaluated at 1, 2, and 3 hours after drug or vehicle treatment.

[1] = system: patients with fibromyalgia; test: 8-week double-blind placebo-controlled clinical study in patients with fibromyalgia; type: in vivo, human
Method: A clinical study of the effect of pregabalin on human patients with fibromyalgia was also conducted. This study was conducted to assess the efficacy of pregabalin (150, 300, and 450 mg/day) compared with placebo for the relief of pain and improvement in functional status in patients with fibromyalgia. Patients who participated in the study must have met the American College of Rheumatology criteria for fibromyalgia (widespread pain present for at least 3 months, and pain in at least 11 of 18 tender point sites).
Following a 1-week baseline phase, qualified patients were randomized to receive either 150, 300, or 450 mg/day pregabalin or placebo according to an 8-week, double-blind, multicenter study design. The intent-to-treat (ITT) population comprised a total of 529 patients: 132 patients received 450 mg/day, 134 received 300 mg/day, 132 received 150 mg/day pregabalin, and 131 received placebo. The first phase of the 8-week double-blind phase consisted of a 1-week titration phase. Patients randomized to the placebo, 150 and 300 mg/day pregabalin treatment groups started out at their fixed dose at Day 1. Patients randomized to 450 mg/day pregabalin treatment group started at 300 mg/day and titrated to the target dose of 450 mg/day on Day 4, and remained at the fixed dose for the remainder of the double-blind period. Following Week 8 of the double-blind phase, patients had the option of entering an open-label follow-on study (Protocol 1008-033).
The primary efficacy measurements were derived from the daily, self-assessed pain score from the patient diary. Secondary measures were derived from the SF-MPQ, Manual Tender Point Survey, quality of sleep score from the daily diary, Multidimensional Assessment of Fatigue (MAF), Clinical Global Impression of Change (CGIC) and Patient Global Impression of Change (PGIC), the SF-36 Health Survey (SF-36), Hospital Anxiety and Depression Scale (HADS), and Medical Outcomes Study (MOS) Sleep Scale.
All analyses were performed on the ITT population, defined as all randomized patients who received at least one dose of study medication.

rats [2] = test: Adverse effects of amitriptyline seen in the rat allodynia study; conditions: 10 mg/kg PO dose (so in the source)
rats [3] = conditions: rat, in vivo, po, 6 mg/kg

## CC(C)C[C@H](CN)CC(=O)O [Pregabalin, (S)-3-(aminomethyl)-5-methylhexanoic acid]
Male Sprague-Dawley rats; 3 mg/kg PO
  Effect on allodynia: without effect on allodynia
Male Sprague-Dawley rats; 3 mg/kg PO group, Day 1, before acid saline injection and before drug, N = 6/group
  Paw withdrawal threshold, Day 1: 27.37 grams
Male Sprague-Dawley rats; 3 mg/kg PO group, baseline 30 minutes before drug, N = 6/group
  Paw withdrawal threshold, Baseline: 5.32 grams
Male Sprague-Dawley rats; 3 mg/kg PO, 1 hr after treatment, N = 6/group
  Paw withdrawal threshold, 1 hr Post Rx: 7.92 grams
Male Sprague-Dawley rats; 3 mg/kg PO, 2 hr after treatment, N = 6/group
  Paw withdrawal threshold, 2 hr Post Rx: 4.53 grams
Male Sprague-Dawley rats; 3 mg/kg PO, 3 hr after treatment, N = 6/group
  Paw withdrawal threshold, 3 hr Post Rx: 6.07 grams
Male Sprague-Dawley rats; 10 mg/kg PO group, Day 1, before acid saline injection and before drug, N = 4/group
  Paw withdrawal threshold, Day 1: 24.90 grams
Male Sprague-Dawley rats; 10 mg/kg PO group, baseline 30 minutes before drug, N = 4/group
  Paw withdrawal threshold, Baseline: 3.55 grams
Male Sprague-Dawley rats; 10 mg/kg PO, 1 hr after treatment, N = 4/group
  Paw withdrawal threshold, 1 hr Post Rx: 2.28 grams
Male Sprague-Dawley rats; 10 mg/kg PO, 2 hr after treatment, N = 4/group
  Paw withdrawal threshold, 2 hr Post Rx: 28.84 ^b grams
Male Sprague-Dawley rats; 10 mg/kg PO, 3 hr after treatment, N = 4/group
  Paw withdrawal threshold, 3 hr Post Rx: 22.23 ^b grams
Male Sprague-Dawley rats; 30 mg/kg PO group, Day 1, before acid saline injection and before drug, N = 6/group
  Paw withdrawal threshold, Day 1: 26.07 grams
Male Sprague-Dawley rats; 30 mg/kg PO group, baseline 30 minutes before drug, N = 6/group
  Paw withdrawal threshold, Baseline: 4.74 grams
Male Sprague-Dawley rats; 30 mg/kg PO, 1 hr after treatment, N = 6/group
  Paw withdrawal threshold, 1 hr Post Rx: 18.15 grams
Male Sprague-Dawley rats; 30 mg/kg PO, 2 hr after treatment, N = 6/group
  Paw withdrawal threshold, 2 hr Post Rx: 25.11 ^b grams
Male Sprague-Dawley rats; 30 mg/kg PO, 3 hr after treatment, N = 6/group
  Paw withdrawal threshold, 3 hr Post Rx: 23.74 ^b grams
Male Sprague-Dawley rats; 10 or 30 mg/kg PO, at 2 to 3 hours after therapy
  Analgesic-like action compared with vehicle treatment: significantly greater than vehicle treatment
Male Sprague-Dawley rats; 10 or 30 mg/kg PO
  Effect on static (mechanical) allodynia: inhibited static allodynia; also recorded: reduced static allodynia
Male Sprague-Dawley rats; 10 or 30 mg/kg PO, listed as pregabalin
  Effect on static (mechanical) allodynia: reversed mechanical allodynia
[1]; 450 mg/day
  SF-36 Health Survey: Social Functioning, Bodily Pain, Vitality, and General Health Perception domains, compared to placebo: significant difference favoring 450 mg/day pregabalin
[1]; 450 mg/day, ITT population
  Endpoint mean pain score (primary efficacy measure), compared to placebo: effective
[1]; 450 mg/day, ITT population, listed as pregabalin
  Endpoint mean pain score (primary efficacy measure), compared to placebo: significantly better
[1]; 450 mg/day, ITT population, placebo 13.2%, p=0.003
  Responder status (patients reporting at least 50% reduction in pain at endpoint compared to baseline): 28.9%
[1]; 450 mg/day, at Week 1 and continued through Week 7
  Mean pain scores by week, compared to placebo: significant difference from placebo
[1]; 300 and 150 mg/day
  Primary efficacy parameter (pain), compared to placebo: no significant effect on pain
  Secondary parameters compared to placebo: significant differences in many of the secondary parameters
[1]; 300 and 150 mg/day, listed as pregabalin
  Primary efficacy parameter (pain), compared to placebo: not significantly different from placebo
[1]; 300 and 450 mg/day treatment arms
  Improvement in fatigue, clinician and patient global assessments of change, and sleep quality: superior to placebo

## CN(C)CCC=C1c2ccccc2CCc2ccccc21 [Amitriptyline]
Male Sprague-Dawley rats; 6 mg/kg PO
  Effect on allodynia: without inhibitory effects on allodynia
Male Sprague-Dawley rats; 6 mg/kg SC group, Day 1, before acid saline injection and before drug, N = 6/group
  Static allodynia, Day 1: 24.44
Male Sprague-Dawley rats; 6 mg/kg SC group, baseline 30 minutes before drug, N = 6/group
  Static allodynia, Baseline: 2.36
Male Sprague-Dawley rats; 6 mg/kg SC
  Effect on allodynia / PWTs: did not alter PWTs
Male Sprague-Dawley rats; 6 mg/kg SC, listed as amitryptiline
  Effect on allodynia / PWTs: did not alter allodynia
Male Sprague-Dawley rats; 6 mg/kg SC, 1 hr after treatment, N = 6/group
  Static allodynia, 1 hr Post Rx: 12.01
Male Sprague-Dawley rats; 6 mg/kg SC, 2 hr after treatment, N = 6/group
  Static allodynia, 2 hr Post Rx: 7.38
Male Sprague-Dawley rats; 6 mg/kg SC, 3 hr after treatment, N = 6/group
  Static allodynia, 3 hr Post Rx: 7.20
Rats [2]
  Lethality: lethal in a fraction of rats
Rats [3]
  Tachycardia: tachycardia was observed

## CN1CC[C@]23c4c5ccc(O)c4O[C@H]2[C@@H](O)C=C[C@H]3[C@H]1C5 [Morphine]
Male Sprague-Dawley rats; 3 mg/kg SC group, Day 1, before acid saline injection and before drug, n = 10
  Static allodynia (paw withdrawal threshold), Day 1: 24.27 grams
Male Sprague-Dawley rats; 3 mg/kg SC group, baseline 30 minutes before drug, n = 10
  Static allodynia (paw withdrawal threshold), Baseline: 2.89 grams
Male Sprague-Dawley rats; 3 mg/kg SC, 1 hour, not 2 or 3 hours, after treatment
  Effect on PWTs: increased PWTs, but only at 1 hour
Male Sprague-Dawley rats; 3 mg/kg SC, 1 hr after treatment, n = 10
  Static allodynia (paw withdrawal threshold), 1 hr Post: 20.52 ^b grams
Male Sprague-Dawley rats; 3 mg/kg SC, 2 hr after treatment, n = 10
  Static allodynia (paw withdrawal threshold), 2 hr Post Rx: 9.93 grams
Male Sprague-Dawley rats; 3 mg/kg SC, 3 hr after treatment, n = 10
  Static allodynia (paw withdrawal threshold), 3 hr Post Rx: 7.09 grams
Male Sprague-Dawley rats; 10 mg/kg SC group, Day 1, before acid saline injection and before drug, n = 6
  Static allodynia (paw withdrawal threshold), Day 1: 26.63 grams
Male Sprague-Dawley rats; 10 mg/kg SC group, baseline 30 minutes before drug, n = 6
  Static allodynia (paw withdrawal threshold), Baseline: 3.09 grams
Male Sprague-Dawley rats; 10 mg/kg SC, 1 hr after treatment, n = 6
  Static allodynia (paw withdrawal threshold), 1 hr Post: 28.840 ^b grams
Male Sprague-Dawley rats; 10 mg/kg SC, 2 hr after treatment, n = 6
  Static allodynia (paw withdrawal threshold), 2 hr Post Rx: 22.05 ^b grams
Male Sprague-Dawley rats; 10 mg/kg SC, 3 hr after treatment, n = 6
  Static allodynia (paw withdrawal threshold), 3 hr Post Rx: 16.91 grams
Male Sprague-Dawley rats; 10 mg/kg SC, at 1 and 2 hours after treatment
  Effect on static allodynia: inhibited static allodynia
Male Sprague-Dawley rats; 3 and 10 mg/kg SC
  Effect on static allodynia: reduced static allodynia
